Data: ChEMBL document CHEMBL3813628, “Molecular similarity guided optimization of novel Nrf2 activators with 1,2,4-oxadiazole core” (Bioorg Med Chem, 2016)
The source made the active and inactive calls. No cut-off for these calls is given here.

Key:
[1] = target: T1, Nuclear factor erythroid 2-related factor 2 (Homo sapiens) (UniProt Q16236); assay: Activation of Nrf2 in human HCT116 cells assessed as upregulation of gamma-GCS after 8 hrs by western blot analysis; format: cell-based; settings: HCT-116
T1 sequence (whole entry): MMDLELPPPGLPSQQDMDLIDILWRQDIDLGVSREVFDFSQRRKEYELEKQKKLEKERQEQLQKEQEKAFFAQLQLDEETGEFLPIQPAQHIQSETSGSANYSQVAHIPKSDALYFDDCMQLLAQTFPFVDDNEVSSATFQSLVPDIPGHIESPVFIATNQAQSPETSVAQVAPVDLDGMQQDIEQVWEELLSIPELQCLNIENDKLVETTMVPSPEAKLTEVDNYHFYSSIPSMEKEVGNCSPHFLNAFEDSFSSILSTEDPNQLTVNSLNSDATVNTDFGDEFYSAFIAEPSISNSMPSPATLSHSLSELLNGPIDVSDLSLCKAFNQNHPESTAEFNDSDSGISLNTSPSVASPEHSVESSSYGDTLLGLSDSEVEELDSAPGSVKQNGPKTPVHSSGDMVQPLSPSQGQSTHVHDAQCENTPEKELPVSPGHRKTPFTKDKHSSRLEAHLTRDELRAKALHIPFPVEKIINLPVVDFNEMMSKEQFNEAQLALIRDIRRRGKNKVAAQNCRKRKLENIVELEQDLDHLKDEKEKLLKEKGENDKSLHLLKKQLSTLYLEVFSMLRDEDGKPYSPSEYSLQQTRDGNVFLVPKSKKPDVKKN

[2] = target: T1, Nuclear factor erythroid 2-related factor 2 (Homo sapiens); assay: Induction of Nrf2 translocation into nucleus in human NCM460 cells after 12 hrs by DAPI staining-based laser scanning confocal microscopic analysis; format: cell-based
[3] = Cytotoxicity against rat PC12 cells assessed as cell viability at 160 uM after 24 hrs by MTT assay relative to control; format: cell-based, PC-12; settings: read-out: Activity
[4] = target: T1, Nuclear factor erythroid 2-related factor 2 (Homo sapiens); assay: Activation of Nrf2 in human HepG2 cells at 40 uM incubated for 12 hrs by ARE-driven luciferase reporter gene assay relative to control; format: cell-based
[5] = Cytotoxicity against human NCM460 cells assessed as cell viability at low to medium concentration after 24 hrs by MTT assay relative to control; format: cell-based; settings: ncm460, 24 h
[6] = Cytotoxicity against human L02 cells assessed as cell viability at 160 uM after 24 hrs by MTT assay relative to control; format: cell-based; settings: read-out: Activity
[7] = target: T1, Nuclear factor erythroid 2-related factor 2 (Homo sapiens); assay: Activation of Nrf2 in human HepG2 cells at 0.2 uM incubated for 12 hrs by ARE-driven luciferase reporter gene assay relative to control; format: cell-based
[8] = (§1) Cytoprotective activity against H2O2-induced cytotoxicity in rat PC12 cells assessed as cell viability pretreated at 20 uM for 24 hrs followed by H2O2 challenge for 12 hrs by MTT assay (reference value: 50%); format: functional; settings: PC-12, read-out: Activity
[9] = target: T1, Nuclear factor erythroid 2-related factor 2 (Homo sapiens); assay: Induction of Nrf2 translocation into nucleus in human L02 cells after 12 hrs by DAPI staining-based laser scanning confocal microscopic analysis; format: cell-based
[10] = (§2) Cytoprotective activity against H2O2-induced cytotoxicity in human L02 cells assessed as cell viability pretreated at 20 uM for 24 hrs followed by H2O2 challenge for 12 hrs by MTT assay (reference value: 50%); format: functional; settings: read-out: Activity
[11] = Cytotoxicity against human NCM460 cells assessed as cell viability at 20 uM after 24 hrs by MTT assay relative to control; format: cell-based; settings: ncm460, 24 h
[12] = target: T1, Nuclear factor erythroid 2-related factor 2 (Homo sapiens); assay: Activation of Nrf2 in human HepG2 cells at 5 uM incubated for 12 hrs by ARE-driven luciferase reporter gene assay relative to control; format: cell-based
[13] = target: T1, Nuclear factor erythroid 2-related factor 2 (Homo sapiens); assay: Activation of Nrf2 in human HepG2 cells incubated for 12 hrs by ARE-driven luciferase reporter gene assay relative to control; format: cell-based
[14] = target: T1, Nuclear factor erythroid 2-related factor 2 (Homo sapiens); assay: Activation of Nrf2 in human HepG2 cells at 160 uM incubated for 12 hrs by ARE-driven luciferase reporter gene assay relative to control; format: cell-based
[15] = Cytotoxicity against rat PC12 cells assessed as cell viability at 20 uM after 24 hrs by MTT assay relative to control; format: cell-based; settings: pc-12, 24 h
[16] = Cytotoxicity against rat PC12 cells assessed as cell viability at low to medium concentration after 24 hrs by MTT assay relative to control; format: cell-based; settings: pc-12, 24 h
[17] = Cytotoxicity against human HCT116 cells assessed as cell viability after 24 hrs by MTT assay; format: cell-based; settings: hct-116, 24 h
[18] = Cytotoxicity against human NCM460 cells assessed as cell viability at 160 uM after 24 hrs by MTT assay relative to control; format: cell-based; settings: read-out: Activity
[19] = (§3) Cytoprotective activity against H2O2-induced cytotoxicity in human NCM460 cells assessed as cell viability pretreated at 20 uM for 24 hrs followed by H2O2 challenge for 12 hrs by MTT assay (reference value: 50%); format: functional; settings: read-out: Activity
[20] = target: T1, Nuclear factor erythroid 2-related factor 2 (Homo sapiens); assay: Activation of Nrf2 in human HepG2 cells at 20 uM incubated for 12 hrs by ARE-driven luciferase reporter gene assay relative to control; format: cell-based
[21] = target: T1, Nuclear factor erythroid 2-related factor 2 (Homo sapiens); assay: Activation of Nrf2 in human HepG2 cells at 0.02 uM incubated for 12 hrs by ARE-driven luciferase reporter gene assay relative to control; format: cell-based
[22] = target: T1, Nuclear factor erythroid 2-related factor 2 (Homo sapiens); assay: Activation of Nrf2 expression in human HCT116 cells after 8 hrs by western blot analysis; format: cell-based; settings: HCT-116
[23] = target: T1, Nuclear factor erythroid 2-related factor 2 (Homo sapiens); assay: Activation of Nrf2 in human HCT116 cells assessed as upregulation of NQO1 after 8 hrs by western blot analysis; format: cell-based; settings: HCT-116
[24] = target: T2, Nuclear factor erythroid 2-related factor 2 (Rattus norvegicus) (UniProt O54968); assay: Induction of Nrf2 translocation into nucleus in rat PC12 cells after 12 hrs by DAPI staining-based laser scanning confocal microscopic analysis; format: cell-based; settings: PC-12
T2 sequence (whole entry): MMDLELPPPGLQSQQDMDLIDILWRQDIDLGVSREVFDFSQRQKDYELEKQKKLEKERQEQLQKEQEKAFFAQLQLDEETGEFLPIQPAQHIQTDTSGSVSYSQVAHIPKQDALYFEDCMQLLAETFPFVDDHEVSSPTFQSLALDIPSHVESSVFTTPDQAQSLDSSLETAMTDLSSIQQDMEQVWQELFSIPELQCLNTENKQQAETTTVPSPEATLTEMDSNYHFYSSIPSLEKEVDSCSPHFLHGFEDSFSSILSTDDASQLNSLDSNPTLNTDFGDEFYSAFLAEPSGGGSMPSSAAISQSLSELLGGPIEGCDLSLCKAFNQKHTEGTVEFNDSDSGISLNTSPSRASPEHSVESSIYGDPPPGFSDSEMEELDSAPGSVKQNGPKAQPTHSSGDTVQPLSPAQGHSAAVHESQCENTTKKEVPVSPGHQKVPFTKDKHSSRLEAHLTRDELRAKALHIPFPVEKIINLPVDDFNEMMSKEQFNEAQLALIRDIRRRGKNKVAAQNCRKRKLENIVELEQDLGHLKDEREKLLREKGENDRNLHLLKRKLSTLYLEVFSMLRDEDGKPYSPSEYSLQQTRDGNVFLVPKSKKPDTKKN

[25] = Cytotoxicity against human L02 cells assessed as cell viability at low to medium concentration after 24 hrs by MTT assay relative to control; format: cell-based; settings: l02, 24 h
[26] = target: T1, Nuclear factor erythroid 2-related factor 2 (Homo sapiens); assay: Activation of Nrf2 in human HepG2 cells at 80 uM incubated for 12 hrs by ARE-driven luciferase reporter gene assay relative to control; format: cell-based
[27] = target: T1, Nuclear factor erythroid 2-related factor 2 (Homo sapiens); assay: Activation of Nrf2 in human HepG2 cells at 2 uM incubated for 12 hrs by ARE-driven luciferase reporter gene assay relative to control; format: cell-based
[28] = target: T1, Nuclear factor erythroid 2-related factor 2 (Homo sapiens); assay: Induction of Nrf2 translocation from cytoplasm to nucleus in human HCT116 cells at 20 uM by western blot analysis; format: cell-based; settings: HCT-116, TDE = time-dependent effect
[29] = target: T1, Nuclear factor erythroid 2-related factor 2 (Homo sapiens); assay: Activation of Nrf2 in human HCT116 cells assessed as upregulation of HO-1 after 8 hrs by western blot analysis; format: cell-based; settings: HCT-116
[30] = Cytotoxicity against human L02 cells assessed as cell viability at 20 uM after 24 hrs by MTT assay relative to control; format: cell-based; settings: l02, 24 h
PC-12 = assay: as §1; format: functional
L02 = assay: as §2; format: functional
NCM460 = assay: as §3; format: functional

In the case of Cc1nc2cc(-c3noc(-c4cnccn4)n3)ccc2o1, the Activity [1] is reported as “Dose-dependent effect”, the Activity [2] is reported as “Dose-dependent effect” and the viability at 24 h, 160 µM [3] is reported as 80%. The fold change (FC) [4] was 15.5, the Activity [5] was “Non-toxic” and the viability at 24 h, 160 µM [6] was 80%. For the same compound, the fold change (FC) [7] was 4.98, the viability at 20 µM [8] was 80% and the Activity [9] was “Dose-dependent effect”. For the same compound, the viability at 20 µM [10] was 85%, the Activity [11] was “Non-toxic” and the fold change (FC) [12] was 6.85. For the same compound, the Activity [13] was “Dose-dependent effect”, the fold change (FC) [14] was 15.3 and the Activity [15] was “Non-toxic”. The Activity [16] was “Non-toxic”, the Activity [17] was “Non-toxic” and the viability at 24 h, 160 µM [18] was 80%. It also gave a viability at 20 µM [19] of 90%, a fold change (FC) [20] of 9.57 and a fold change (FC) [21] of 3.42. The Activity [22] was “Dose-dependent effect”, the Activity [23] was “Dose-dependent effect” and the Activity [24] was “Dose-dependent effect”. The Activity [25] was “Non-toxic”, the fold change (FC) [26] was 17.1 and the fold change (FC) [27] was 4.67. The Activity [28] was “tde”, the Activity [29] was “Dose-dependent effect” and the Activity [30] was “Non-toxic”.
Clc1cc(-c2nc(-c3ccc4oc(-c5ccccc5)nc4c3)no2)ccn1 showed a fold change (FC) [4] of 6.38, a fold change (FC) [7] of 3.41 and a fold change (FC) [12] of 4.64. For the same compound, the fold change (FC) [14] was 10.5, the fold change (FC) [20] was 6.64 and the fold change (FC) [21] was 3.08. It also gave a fold change (FC) [26] of 9.84 and a fold change (FC) [27] of 4.64.
For CC(C)n1c(=O)[nH]c2cc(-c3noc(/C=C/c4ccccc4)n3)ccc21, the fold change (FC) [12] was 3.19 and the fold change (FC) [20] was 5.19.
Cc1nc2cc(-c3noc(-c4ccc5[nH]cnc5c4)n3)ccc2o1 showed a fold change (FC) [4] of 8.94, a fold change (FC) [7] of 2.35 and a fold change (FC) [12] of 4.38. For the same compound, the fold change (FC) [14] was 2.51, the fold change (FC) [20] was 7.98 and the fold change (FC) [21] was 1.89. The fold change (FC) [26] was 4.88 and the fold change (FC) [27] was 3.95.
With CC(C)n1c(=O)[nH]c2cc(-c3noc(C4CCCCC4)n3)ccc21 the fold change (FC) [4] was 7.33, the fold change (FC) [7] was 6.14 and the fold change (FC) [12] was 4.98. For the same compound, the fold change (FC) [14] was 5.74, the fold change (FC) [20] was 6.28 and the fold change (FC) [21] was 3.81. It also gave a fold change (FC) [26] of 6.17 and a fold change (FC) [27] of 7.51.
With CN(C)c1cccc(-c2nc(-c3ccc4c(c3)[nH]c(=O)n4C3CCCC3)no2)c1 the fold change (FC) [4] was 8.89, the fold change (FC) [7] was 3.53 and the fold change (FC) [12] was 1.94. It also gave a fold change (FC) [14] of 3.06, a fold change (FC) [20] of 5.38 and a fold change (FC) [21] of 2.59. It also gave a fold change (FC) [26] of 3.08 and a fold change (FC) [27] of 3.64.
With CC(C)(C)c1cc(O)ccc1O [E319] the fold change (FC) [4] was 2.14, the Activity [5] was “Non-toxic” and the fold change (FC) [7] was 1.25. For the same compound, the Activity (PC-12) was “Active”, the Activity (L02) was “Active” and the fold change (FC) [14] was 8.46. For the same compound, the Activity [16] was “Non-toxic”, the Activity (NCM460) was “Active” and the fold change (FC) [21] was 1.18. For the same compound, the Activity [25] was “Non-toxic”, the fold change (FC) [26] was 5.2 and the fold change (FC) [27] was 1.24.
For CN(C)C=O [DIMETHYLFORMAMIDE], the fold change (FC) [4] was 2.97, the Activity [5] was “Non-toxic” and the fold change (FC) [7] was 1. For the same compound, the Activity (PC-12) was “Active”, the Activity (L02) was “Active” and the Activity [16] was “Non-toxic”. For the same compound, the Activity (NCM460) was “Active”, the fold change (FC) [20] was 1.65 and the fold change (FC) [21] was 0.82. For the same compound, the Activity [25] was “Non-toxic” and the fold change (FC) [27] was 1.1.
In the case of CCc1cc(O)nc(SCc2nc(-c3ccc(Cl)c(F)c3)no2)n1, the fold change (FC) [12] is reported as 1.38 and the fold change (FC) [20] is reported as 4.28.
For CCOc1ccc(-c2nc(-c3ccc4[nH]c(=O)n(C5CCCC5)c4c3)no2)cc1OCC, the fold change (FC) [12] was 1.31 and the fold change (FC) [20] was 3.38.
